# Earlier results, collected in patent US5837715A, “3-fluoro-4-aminopiperidine derivatives as 5-HT receptor agonists” (Merck Sharp & Dohme Ltd., priority 1997, dated 1998).
# Assays:
# [1] = humans, therapeutic doses
# [2] = tested on: human 5-HT1D.sbsb.α and 5-HT1D.sbsb.β receptor subtypes; settings: cf. WO-A-91/17174, Table 1
smiles,measurement,setting,value
CNS(=O)(=O)Cc1ccc2[nH]cc(CCN(C)C)c2c1 [sumatriptan],adverse cardiovascular events,[1],certain adverse cardiovascular events
same,discrimination between the human 5-HT1D.sbsb.α and 5-HT1D.sbsb.β receptor subtypes,[2],barely discriminates
